Where “and” joins values, the source holds several entries; their conditions need not be identical. Equal values may be shown once. Inconclusive results and toxic doses are left out. No stated cut-off is given here; in the data, active means T/C of 150% or more; inactive means T/C below 125%.
Tested on: L1210 leukemia ip in BDF1 mice, survival T/C
Test: NCI In Vivo Anticancer Drug Screen. Data for tumor model L1210 Leukemia (intraperitoneal) in B6D2F1 (BDF1) mice
Conditions: endpoint: mean survival time, higher = longer survival
Method in brief: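 Transplantable tumor model; survival measured in treated vs vehicle control mice. Value = treated/control.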

[1] = dose: 100.0 mg/kg/injection, schedule: Q04DX003 (ip), vehicle: Klucel (hydroxypropylcellulose) (HPC)
[2] = dose: 200.0 mg/kg/injection, schedule: Q04DX003 (ip), vehicle: Klucel (hydroxypropylcellulose) (HPC)
[3] = dose: 400.0 mg/kg/injection, schedule: Q04DX003 (ip), vehicle: Klucel (hydroxypropylcellulose) (HPC)
[4] = dose: 25.0 mg/kg/injection, schedule: Q01DX009 (ip), vehicle: saline with Tween-80
[5] = dose: 50.0 mg/kg/injection, schedule: Q01DX009 (ip), vehicle: saline with Tween-80
[6] = dose: 100.0 mg/kg/injection, schedule: Q01DX009 (ip), vehicle: saline with Tween-80
[7] = dose: 100.0 mg/kg/injection, schedule: Q04DX003 (ip), vehicle: saline
[8] = dose: 200.0 mg/kg/injection, schedule: Q01DX009 (ip), vehicle: saline with Tween-80

Measured: T/C

CCC(=O)Nc1ccc(C)cc1C
inactive: dose: 100.0 mg/kg/injection, schedule: Q01DX009 (ip), vehicle: Klucel (hydroxypropylcellulose) (HPC) 92 % of control | [1] 97 % of control | dose: 200.0 mg/kg/injection, schedule: Q01DX009 (ip), vehicle: Klucel (hydroxypropylcellulose) (HPC) 94 % of control | [2] 107 % of control | [3] 96 % of control

OC(CN1CCCCC1)c1cccs1 (stereo not drawn)
inactive: dose: 6.25 mg/kg/injection, schedule: Q04DX003 (ip), vehicle: saline with Tween-80 94 % of control | dose: 12.5 mg/kg/injection, schedule: Q04DX003 (ip), vehicle: saline with Tween-80 97 % of control | dose: 25.0 mg/kg/injection, schedule: Q04DX003 (ip), vehicle: saline with Tween-80 94 % of control

Nc1nc(N)c(-c2ccc(Cl)cc2)c(C(=O)O)n1
inactive: [4] 90 % of control | [5] 97 % of control | [6] 93 % of control and 103 % of control

Cc1ccc(C(=O)N/N=C/c2ccccc2O)cc1
inactive: dose: 100.0 mg/kg/injection, schedule: Q04DX002 (ip), vehicle: Klucel (hydroxypropylcellulose) (HPC) 89 % of control | dose: 200.0 mg/kg/injection, schedule: Q04DX002 (ip), vehicle: Klucel (hydroxypropylcellulose) (HPC) 92 % of control | dose: 400.0 mg/kg/injection, schedule: Q04DX002 (ip), vehicle: Klucel (hydroxypropylcellulose) (HPC) 105 % of control

O=S(=O)(Cl)c1ccccc1S(=O)(=O)Cl
inactive: [1] 95 % of control | [2] 93 % of control | [3] 86 % of control

C[n+]1ccc(/C(N)=N/O)cc1
inactive: dose: 25.0 mg/kg/injection, schedule: Q01DX009 (ip), vehicle: saline 94 % of control and 106 % of control | dose: 50.0 mg/kg/injection, schedule: Q01DX009 (ip), vehicle: saline 104 % of control and 105 % of control | dose: 100.0 mg/kg/injection, schedule: Q01DX009 (ip), vehicle: saline 101 % of control and 107 % of control | dose: 100.0 mg/kg/injection, schedule: Q04DX002 (ip), vehicle: saline 105 % of control | [7] 101 % of control | dose: 200.0 mg/kg/injection, schedule: Q04DX002 (ip), vehicle: saline 107 % of control | dose: 200.0 mg/kg/injection, schedule: Q04DX003 (ip), vehicle: saline 97 % of control | dose: 400.0 mg/kg/injection, schedule: Q04DX002 (ip), vehicle: saline 96 % of control

O=C(NC(Cc1ccccc1)C(=O)O)c1ccccc1 (stereo not drawn)
inactive: [6] 91 % of control | dose: 100.0 mg/kg/injection, schedule: Q04DX003 (ip), vehicle: saline with Tween-80 94 % of control and 92 % of control | [8] 95 % of control | dose: 200.0 mg/kg/injection, schedule: Q04DX003 (ip), vehicle: saline with Tween-80 96 % of control and 95 % of control | dose: 400.0 mg/kg/injection, schedule: Q01DX009 (ip), vehicle: saline with Tween-80 90 % of control | dose: 400.0 mg/kg/injection, schedule: Q04DX003 (ip), vehicle: saline with Tween-80 97 % of control and 90 % of control

CN(C)N=Nc1ccc(C(=O)O)cc1
inactive: [4] 108 % of control | [5] 113 % of control and 120 % of control | dose: 59.0 mg/kg/injection, schedule: Q04DX003 (ip), vehicle: saline 108 % of control | dose: 88.0 mg/kg/injection, schedule: Q04DX003 (ip), vehicle: saline 113 % of control | [7] 109 % of control | dose: 133.0 mg/kg/injection, schedule: Q04DX003 (ip), vehicle: saline 119 % of control | [8] 117 % of control | dose: 400.0 mg/kg/injection, schedule: Q04DX003 (ip), vehicle: saline 105 % of control

COC(c1ccccc1)c1ccccc1
inactive: dose: 50.0 mg/kg/injection, schedule: Q01DX001 (ip), vehicle: saline 109 % of control | dose: 100.0 mg/kg/injection, schedule: Q01DX001 (ip), vehicle: saline 94 % of control | dose: 200.0 mg/kg/injection, schedule: Q01DX001 (ip), vehicle: saline 100 % of control | dose: 400.0 mg/kg/injection, schedule: Q01DX001 (ip), vehicle: saline 94 % of control

Reference: PubChem BioAssay AID248 (DTP/NCI, 2004)
